Laboratory results from article PMC11939361, “diAcCA, a Pro-Drug for Carnosic Acid That Activates the Nrf2 Transcriptional Pathway, Shows Efficacy in the 5xFAD Transgenic Mouse Model of Alzheimer’s Disease” (Antioxidants, 2025).
Entries after “also recorded” stand apart in the source; their conditions may differ.

Tested on: 5xFAD mice
Assay: Quantitative confocal immunohistochemistry (Q-IHC) of hippocampal sections
Assay type: in vivo, mouse
Procedure: The 5xFAD mice bear five mutations linked to AD. Three of these are in the App695 gene [Swedish (APP K670N/M671L), Florida (I716V), London (V717I)], and two are in the PSEN1 gene [L286V, M146L]. Male 5xFAD breeder mice were obtained from Jackson Laboratories (#034848-JAX, Bar Harbor, ME, USA) and crossed with female 6XC57BL6 mice. Genotyping was performed by PCR. First-generation pups were used for all experiments with 5xFAD transgenic (Tg) and WT littermate control mice.
diAcCA or control vehicle was administered three times per week for 3 months to 5xFAD Tg or WT littermate control mice starting at approximately 5 months of age by oral gavage (designated here as “per os” or PO). Three different doses were used (10 mg/kg, 20 mg/kg, or 50 mg/kg). diAcCA was dissolved in olive oil vehicle, a non-polar organic solvent. For vehicle control, we administered olive oil alone. A total of 45 animals were used in this study, with 7–8 animals in each group.
For euthanasia, animals were deeply anesthetized with isoflurane and then transcardially perfused with ice-cold phosphate-buffered saline (PBS) followed by 4% paraformaldehyde (PFA) for fixation. Brains were isolated and post-fixed in 4% PFA overnight at 4 °C. The next day, brains were washed and transferred to 30% sucrose at 4 °C until sectioning. Every brain then received a masked code for the following steps, and the code was only broken after all quantifications were completed.
Sagittal sections (40 μm-thick) were prepared using a vibratome (Leica VT1200S) and incubated in blocking buffer (5% goat serum, 0.5% Triton X-100 in PBS) for 1 h at room temperature to prevent non-specific binding. Following blocking, floating sections were incubated in their respective primary antibody solutions on a shaker overnight at 4 °C. Antibodies against the following proteins were used in this study: NeuN (D4G4O, 1:500, rabbit mAb #24307, Cell Signaling Technology, Danvers, MA, USA), Synapsin I (D12G5, 1:500, rabbit mAb #5297, Cell Signaling Technology), phosphor (Ser202, Thr205)-tau (AT8, 1:500, mAb #MN1020, ThermoFisher Scientific, Waltham, MA, USA), glial fibrillary acidic protein (GFAP) (GA5, 1:500, MAB360, Millipore Sigma, Carlsbad, CA, USA), ionized calcium binding adaptor molecule 1 (Iba1) (EPR16589, 1:1000, #ab178847, Abcam, Waltham, MA, USA), human nuclear antigen (HuNu) (1:500, mouse mAb #191181, Abcam), and caspase-1 (1:50, rabbit pAb #AB1871, Sigma Aldrich, St. Louis, MO, USA). For Aβ staining, floating sections were pre-treated with 90% formic acid (28905, Thermo Scientific) for 1 min at room temperature. They were then rinsed and blocked, following which they were incubated in anti-β-amyloid 17–24 antibody (4G8, 1:1000, #800708, BioLegend, San Diego, CA, USA) on a shaker overnight at 4 °C.
The next day, immunostaining was performed on brain sections after 3 washes in PBS and incubation in the appropriate secondary antibody solution on a shaker for 2 h at room temperature. Secondary antibodies included Alexa 488 (A11008, 1:500, goat anti-rabbit, Life Technologies, Carlsbad, CA, USA) and Alexa 555 (A21424, 1:500, goat anti-mouse, Life Technologies). The sections were again washed with PBS 3 times, mounted on Superfrost plus slides (12-550-15, Fisher Scientific, Waltham, MA, USA) and dried at room temperature. The slides were then coated with Vectashield plus antifade mounting medium, stained with nuclear dye DAPI (H-2000, Vector Laboratories, San Francisco, CA, USA), and a coverslip (12541057, Fisher Scientific) was applied. For each brain, 3–6 images were acquired for each individual marker using a confocal fluorescence microscope (Nikon Eclipse Ti2) (Figure 1, Figure 2 and Figure 3, Supplementary Figure S1). Post image processing, quantification was performed using Fiji ImageJ (1.54f). For the Iba1-stained slides, a mask was made of cells co-labeled for HuNu and Iba1, and then caspase 1 staining was measured. […]

[1] = 5xFAD hippocampus, 10, 20 or 50 mg/kg PO three times a week for 3 months vs vehicle

Structure (SMILES): CC(=O)Oc1c(C(C)C)cc2c(c1OC(C)=O)[C@@]1(C(=O)O)CCCC(C)(C)[C@@H]1CC2 [diAcCA]
- GFAP MFI, astrocytes [1]: significantly improved; also recorded: reduced GFAP MFI
- Iba1 integrated density (ID), microglial density [1]: significantly improved; also recorded: improved IBA ID
- NeuN mean fluorescence intensity (MFI), neuronal density [1]: significantly improved; also recorded: restored NeuN MFI (representing neuronal number) to near normal levels
- Synapsin I MFI, presynaptic density [1]: significantly improved; also recorded: restored Synapsin I MFI (located in the presynaptic terminal of the synapse) to near normal levels
- percent area of Aβ accumulation (4G8) [1]: significantly reduced the area of Aβ accumulation; also recorded: significantly reduced the area of Aβ aggregates
- percentage area of pTau aggregates (AT8) (5xFAD hippocampus, each treatment dose (10, 20, 50 mg/kg PO, 3 months) vs vehicle): remarkable decrease in the area of pTau aggregates; also recorded: dramatically reduced the area of pTau aggregates
